In ChEMBL document CHEMBL1139210, “9,19-cyclolanostane derivatives from the roots of Actaea pachypoda” (J Nat Prod, 2007):
Activity calls are given as the source filed them. The rule behind the calls is not given here.

Tests used:
SK-OV-3 = assay: Cytotoxicity against SKOV3 cells upto 25 ug/mL by neutral red assay; format: cell-based; settings: human
BT-549 = assay: Cytotoxicity against BT549 cells upto 25 ug/mL by neutral red assay; format: cell-based; settings: human
[1] = target: T1, Estrogen receptor (Homo sapiens) (UniProt P03372); assay: Activity against human ERalpha expressed in recombinant yeast cells upto 500 ug/mL; format: cell-based
T1 sequence (whole entry): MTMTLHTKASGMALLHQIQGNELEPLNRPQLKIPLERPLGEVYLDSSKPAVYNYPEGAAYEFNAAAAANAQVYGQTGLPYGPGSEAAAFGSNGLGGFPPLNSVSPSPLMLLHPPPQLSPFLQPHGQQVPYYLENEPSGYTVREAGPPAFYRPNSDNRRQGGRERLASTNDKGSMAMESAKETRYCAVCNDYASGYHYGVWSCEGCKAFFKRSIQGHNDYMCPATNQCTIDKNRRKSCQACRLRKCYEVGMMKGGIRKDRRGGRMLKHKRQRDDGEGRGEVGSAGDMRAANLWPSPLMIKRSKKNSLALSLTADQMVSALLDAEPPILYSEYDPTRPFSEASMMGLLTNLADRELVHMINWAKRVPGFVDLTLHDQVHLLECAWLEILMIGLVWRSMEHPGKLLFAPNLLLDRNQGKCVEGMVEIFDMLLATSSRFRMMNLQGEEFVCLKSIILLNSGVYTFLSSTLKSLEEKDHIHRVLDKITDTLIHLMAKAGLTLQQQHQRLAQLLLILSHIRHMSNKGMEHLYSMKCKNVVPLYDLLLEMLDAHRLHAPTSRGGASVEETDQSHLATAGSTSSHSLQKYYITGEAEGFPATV

Vero = assay: Cytotoxicity against Vero cells upto 25 ug/mL by neutral red assay; format: cell-based; settings: chlorocebus sabaeus
KB = assay: Cytotoxicity against KB cells upto 25 ug/mL by neutral red assay; format: cell-based; settings: human
HL-60 = assay: Antioxidant activity in HL60 cells by DCFH-DA method upto 20ug/mL; format: functional, cell-based; settings: Homo sapiens
SK-MEL = assay: Cytotoxicity against SK-MEL cells upto 25 ug/mL by neutral red assay; format: cell-based; settings: human
LLC-PK1 = assay: Cytotoxicity against LLC-PK1 cells upto 25 ug/mL by neutral red assay; format: cell-based, Sus scrofa; settings: pig
Homo sapiens = species on record: Homo sapiens; assay: (§1) Inhibition of activation of human complement
[2] = as §1

IC50 [2] | SMILES | Activity (SK-OV-3) | Activity (BT-549) | Activity [1] | Activity (Vero) | Activity (KB) | Activity (HL-60) | Activity (SK-MEL) | Activity (LLC-PK1) | Activity (Homo sapiens)
78 µM | CC1(C)CC[C@]2(C(=O)O)CC[C@]3(C)C(=CC[C@@H]4[C@@]5(C)CC[C@H](O)C(C)(C)[C@@H]5CC[C@]43C)[C@@H]2C1 [OLEANOLIC_ACID] | – | – | – | – | – | – | – | – | –
55 µM | C[C@H]1[C@H](C)CC[C@]2(C(=O)O)CC[C@]3(C)C(=CC[C@@H]4[C@@]5(C)CC[C@H](O)C(C)(C)[C@@H]5CC[C@]43C)[C@H]12 [URSOLIC ACID] | – | – | – | – | – | – | – | – | –
187 µM | CC(=O)O[C@@H]1C[C@@]23C[C@@]24CC[C@H](O)C(C)(C)[C@@H]4CC[C@H]3[C@]2(C)[C@@H](O)[C@]34O[C@H](C[C@@H](C)[C@@H]3[C@@]12C)[C@@H](C(C)(C)O)O4 | Not Active | Not Active | inactive | Not Active | Not Active | inactive | Not Active | Not Active | –

More lines, now with the values behind:

SMILES | IC50 [2] | Activity (SK-OV-3) | Activity (BT-549) | Activity [1] | Activity (Vero) | Activity (KB) | Activity (HL-60) | Activity (SK-MEL) | Activity (LLC-PK1) | Activity (Homo sapiens)
CC(=O)O[C@H](C[C@@H](C)[C@H]1C(=O)[C@H](O)[C@@]2(C)[C@@H]3CC[C@H]4C(C)(C)[C@@H](O[C@@H]5OC[C@@H](O)[C@H](O)[C@H]5O)CC[C@@]45C[C@@]35CC[C@]12C)[C@H]1OC1(C)C | – | Not Active | Not Active | inactive | Not Active | Not Active | inactive | Not Active | Not Active | inactive
CC(=O)O[C@@H]1C[C@@]23C[C@@]24CC[C@H](O[C@@H]2OC[C@@H](O)[C@H](O)[C@H]2O)C(C)(C)[C@@H]4CC[C@H]3[C@]2(C)C[C@@H]3O[C@@]4(C[C@@H](C)[C@@H]3[C@@]12C)OC[C@]1(C)O[C@H]41 | – | Not Active | Not Active | inactive | Not Active | Not Active | inactive | Not Active | Not Active | inactive
CC(=O)O[C@@H]1C[C@@]23C[C@@]24CC[C@H](O[C@@H]2OC[C@@H](O)[C@H](O)[C@H]2O)C(C)(C)[C@@H]4CC[C@H]3[C@]2(C)[C@@H](O)[C@]34O[C@H](C[C@@H](C)[C@@H]3[C@@]12C)[C@@H](C(C)(C)O)O4 | – | Not Active | Not Active | inactive | Not Active | Not Active | inactive | Not Active | Not Active | inactive
C[C@H]1[C@H]2[C@H](C[C@@]3(C)C4=CC[C@H]5C(C)(C)[C@@H](O[C@@H]6OC[C@@H](O)[C@H](O)[C@H]6O)CC[C@@]56C[C@@]46CC[C@]23C)O[C@@]2(O[C@H]2C(C)(C)O)[C@@H]1O | – | Not Active | Not Active | inactive | Not Active | Not Active | inactive | Not Active | Not Active | inactive
CC(=O)O[C@@H]1C[C@@]23C[C@@]24CC[C@H](O[C@@H]2OC[C@@H](O)[C@H](O)[C@H]2O)C(C)(C)[C@@H]4CC=C3[C@]2(C)C[C@@H]3O[C@@]4(O[C@H]4C(C)(C)O)[C@H](O)[C@@H](C)[C@@H]3[C@@]12C | – | Not Active | Not Active | inactive | Not Active | Not Active | inactive | Not Active | Not Active | inactive
C[C@@H]1C[C@H]2O[C@@]3(O[C@@H]2C(C)(C)O)[C@H](O)[C@@]2(C)[C@@H]4CC[C@H]5C(C)(C)[C@@H](O[C@@H]6OC[C@@H](O)[C@H](O)[C@H]6O)CC[C@@]56C[C@@]46CC[C@]2(C)[C@@H]13 | – | Not Active | Not Active | inactive | Not Active | Not Active | inactive | Not Active | Not Active | inactive
CC(=O)O[C@@H]1C[C@@]23C[C@@]24CC[C@H](O[C@@H]2OC[C@@H](O)[C@H](O)[C@H]2O)C(C)(C)[C@@H]4CCC3[C@]2(C)C[C@@H]3O[C@@]4(O[C@H]4C(C)(C)O)[C@H](O)[C@@H](C)[C@@H]3[C@@]12C (some centres undefined) | – | Not Active | Not Active | inactive | Not Active | Not Active | inactive | Not Active | Not Active | inactive
